Measurements from patent US11945881B2, “Neoantigens expressed in ovarian cancer and their uses” (Janssen Biotech, Inc., priority 2020, dated 2024).

How the values were obtained:
[1] = tested on: CD4+ T cells; assay: exogenous autologous normal donor restimulation assay, TNFα/IFNγ double positive CD4+ T cells by flow cytometry; assay type: cell-based, human; conditions: donor independent, peptide pool 10 μg/mL, healthy donors; for Fold change (CD4+) vs. DMSO: maximum CD4+ T-cell response (TNFα and IFNγ); for Frequency (TNFα + IFNγ + CD4 T cells): maximum CD4+ T-cell response
Procedure: (§1) The immunogenicity of neoantigens was assessed using the exogenous autologous normal donor restimulation assay. […] The lyophilized peptides were solubilized in 100% DMSO.
(§2) CD1c+ Dendritic Cells (CD1c+DC) isolated from human healthy PBMCs were thawed using media (IMDM (Gibco) supplemented with glutamine, HEPES, 5% human serum (Sigma), and 1× Pen-Strep). DC cells were resuspended in media supplemented with IL-4 (Peprotech, 20 ng/mL) and GM-CSF (Gibco, 20 ng/mL), plated in 6 well microplates, and rested overnight at 37° C. and 5% CO2 incubator. The following day, DC cells were counted and plated in a 96 well round bottom microplate at a concentration of 30,000 viable cells per well. Lyophilized neoantigen peptide pools (15-mer peptides with 8-mer overlapping peptide sequences) were solubilized in 100% DMSO with a stock concentration of 20 mg/mL Neoantigen peptides pools were added to DCs for a final concentration of 10 μg/mL and rested for 2 hours at 37° C. and 5% CO2 incubator. CEF Peptide Pool “Plus” (Cellular Technologies, Ltd.) was utilized as a positive control (each viral peptide at a final concentration of 4 ug/ml) and DMSO at the same final concentration (0.05%) as the experimental peptides was utilized as a negative control. After 2 hours, DC cells were irradiated with 50 gray of ionizing radiation. Autologous CD3+ Pan-T cells isolated from human normal PBMCs were thawed using media. Following irradiation, autologous Pan-T cells were added to the irradiated DCs at 300,000 viable cells per well. Human IL-15 (Peprotech) was added to all wells at final concentration of 10 ng/ml. Plates were incubated at 37° C. and 5% CO2 incubator for a total of 12 days. Media was refreshed every 2-3 days with IL-15 (R&D System, 10 ng/mL final concentration) and IL-2 (R&D systems, 10 IU/mL final concentration).
(§3) On Day 11, cells were re-stimulated with identical experimental peptide pools or controls, at same concentration as peptide stimulation on Day 1. Protein Inhibitor Cocktail (eBioscience) was added to every well and plate was incubated overnight for 14-16 hours at 37° C. and 5% CO2 incubator. On Day 12, cells were stained for surface and intracellular flow cytometry analysis. The cells were washed with PBS and stained with Live/Dead Fixable Aqua Dead Cell stain (Thermo-Fisher). Following the live/dead stain, cells were blocked using Biotin-Fre Fc Receptor Blocker (Accurate Chemical & Scientific Corp). Extracellular cellular flow panel ([…] per well in 50 μL) consisted of CD3 PerCP-Cy5.5 (Biolegend), CD4 BV421 (Biolegend), and CD8 APC-Cy7 (Biolegend). After extracellular staining, cells were fixed and permeabilized using Foxp3/Transcription Factor Staining Buffer Set (eBioscience) and stained for intracellular proteins (1:50 dilution) using TNFα FITC (R&D Systems) and IFNγ BV785 (Biolegend). Cells were washed and resuspended in stain buffer, analyzed, and recorded in a BD Celesta flow cytometer.
(§4) Flow cytometry analysis was conducted on FlowJo v10.6 software. Cells were gated on live, singlet, CD3+, CD4+ and CD8+ T cells. The CD8+ and CD4+ T cells were analyzed for TNFα and IFNγ expression.
(§5) The immunogenicity of neoantigens was first investigated in 9-16 healthy donors.

[2] = tested on: CD8+ T cells; assay: exogenous autologous normal donor restimulation assay, TNFα/IFNγ double positive CD8+ T cells by flow cytometry; assay type: cell-based, human; conditions: for Fold change (CD8+) vs. DMSO: maximum CD8+ T-cell response (TNFα and IFNγ); for Fold change (CD8+) vs. DMSO / Frequency (TNFα + IFNγ + CD8 T cells): donor independent, peptide pool 10 μg/mL, healthy donors; for Frequency (TNFα + IFNγ + CD8 T cells): maximum CD8+ T-cell response; for Immunogenic (yes/no): positive if CD8+ and/or CD4+ double positive TNFα/IFNγ frequency >=3-fold over DMSO and at least 0.01%
Procedure: as §1, §2, §3, §4, §5

Sequence: AAEQAGCMQCLI [FUS8, neoantigen, gene fusion TYSND1->AIFM2]
- Fold change (CD4+) vs. DMSO [1]: 5.93 fold
- Frequency (TNFα + IFNγ + CD4 T cells) [1]: 0.029%
- Fold change (CD8+) vs. DMSO [2]: 6.27 fold
- Frequency (TNFα + IFNγ + CD8 T cells) [2]: 0.12%
- Immunogenic (yes/no) [2]: yes

Sequence: ALTVVPPGLRLDRVLLHLW [FUS27, neoantigen, gene fusion C17orf99->SYNGR2]
- Fold change (CD4+) vs. DMSO [1]: 10.37 fold
- Frequency (TNFα + IFNγ + CD4 T cells) [1]: 0.021%
- Fold change (CD8+) vs. DMSO [2]: 19.77 fold
- Frequency (TNFα + IFNγ + CD8 T cells) [2]: 0.43%
- Immunogenic (yes/no) [2]: Yes

Sequence: AMAKKQRPDTAFWVQH [AS12, neoantigen, alternative splicing of IQGAP3]
- Fold change (CD4+) vs. DMSO [1]: 8.4 fold
- Frequency (TNFα + IFNγ + CD4 T cells) [1]: 0.017%
- Fold change (CD8+) vs. DMSO [2]: 6.05 fold
- Frequency (TNFα + IFNγ + CD8 T cells) [2]: 0.13%
- Immunogenic (yes/no) [2]: Yes

Sequence: APILAAIGIGRLLCMDKIPATASLTP [FUS3, neoantigen, gene fusion PTH2R->LOC101927960]
- Fold change (CD4+) vs. DMSO [1]: 5.02 fold
- Frequency (TNFα + IFNγ + CD4 T cells) [1]: 0.025%
- Fold change (CD8+) vs. DMSO [2]: 158.8 fold
- Frequency (TNFα + IFNγ + CD8 T cells) [2]: 0.74%
- Immunogenic (yes/no) [2]: yes

Sequence: APSCGVSRAICDRGCH [AS79, neoantigen, alternative splicing of FBN3]
- Fold change (CD4+) vs. DMSO [1]: 5.85 fold
- Frequency (TNFα + IFNγ + CD4 T cells) [1]: 0.12%
- Fold change (CD8+) vs. DMSO [2]: 2.88 fold
- Frequency (TNFα + IFNγ + CD8 T cells) [2]: 0.076%
- Immunogenic (yes/no) [2]: Yes

Sequence: CDPAAPRAVSLPGRQGSEGGEGRGLGSRPAVLGRHSSGEGGGPWGELP [AS133, neoantigen, alternative splicing of HRAS]
- Fold change (CD4+) vs. DMSO [1]: 54.15 fold
- Frequency (TNFα + IFNγ + CD4 T cells) [1]: 0.16%
- Fold change (CD8+) vs. DMSO [2]: 171.88 fold
- Frequency (TNFα + IFNγ + CD8 T cells) [2]: 0.84%
- Immunogenic (yes/no) [2]: Yes

Sequence: CLRPSLSLASRGFQNP [AS88, neoantigen, alternative splicing of UPK3B]
- Fold change (CD4+) vs. DMSO [1]: 15.85 fold
- Frequency (TNFα + IFNγ + CD4 T cells) [1]: 0.062%
- Fold change (CD8+) vs. DMSO [2]: 3.13 fold
- Frequency (TNFα + IFNγ + CD8 T cells) [2]: 0.063%
- Immunogenic (yes/no) [2]: Yes

Sequence: EEDREKYRWMAPFVPGQVWTWEYFL [AS28, neoantigen, alternative splicing of HYDIN]
- Fold change (CD4+) vs. DMSO [1]: 12.43 fold
- Frequency (TNFα + IFNγ + CD4 T cells) [1]: 0.17%
- Fold change (CD8+) vs. DMSO [2]: 8.82 fold
- Frequency (TNFα + IFNγ + CD8 T cells) [2]: 0.15%
- Immunogenic (yes/no) [2]: Yes

Sequence: FKIPKFSIVLSSNSAFRCDPLSSRPRCFGGSLEAP [AS27, neoantigen, alternative splicing of GTSE1]
- Fold change (CD4+) vs. DMSO [1]: 31.11 fold
- Frequency (TNFα + IFNγ + CD4 T cells) [1]: 0.063%
- Fold change (CD8+) vs. DMSO [2]: 108.36 fold
- Frequency (TNFα + IFNγ + CD8 T cells) [2]: 0.35%
- Immunogenic (yes/no) [2]: Yes

Sequence: FLIVAEIVTLLIAFI [FUS20, neoantigen, gene fusion CMTM8->CMTM7]
- Fold change (CD4+) vs. DMSO [1]: 2.36 fold
- Frequency (TNFα + IFNγ + CD4 T cells) [1]: 0.019%
- Fold change (CD8+) vs. DMSO [2]: 28.23 fold
- Frequency (TNFα + IFNγ + CD8 T cells) [2]: 0.54%
- Immunogenic (yes/no) [2]: Yes

Sequence: FQETWLAEDAAAGALSPCTIPTPPQPPLLSLPTSSGTRQ [AS97, neoantigen, alternative splicing of ETV4]
- Fold change (CD4+) vs. DMSO [1]: 6.12 fold
- Frequency (TNFα + IFNγ + CD4 T cells) [1]: 0.15%
- Fold change (CD8+) vs. DMSO [2]: 433.66 fold
- Frequency (TNFα + IFNγ + CD8 T cells) [2]: 1.34%
- Immunogenic (yes/no) [2]: Yes

Sequence: GDPAKVVEIPRLL [AS31, neoantigen, alternative splicing of MECR]
- Fold change (CD4+) vs. DMSO [1]: 6.91 fold
- Frequency (TNFα + IFNγ + CD4 T cells) [1]: 0.016%
- Fold change (CD8+) vs. DMSO [2]: 4.54 fold
- Frequency (TNFα + IFNγ + CD8 T cells) [2]: 0.045%
- Immunogenic (yes/no) [2]: Yes
